Columns and labels:
Assay type in all cases: cell-based, human
201B7 cells [1] = experiment: Optical microscope observation 1: precipitates and cell survival after 7-day culture (Example 3)
Description: In the above-mentioned Examples, precipitates were formed in culture dishes in some cases. The formation of the precipitates inhibits contact between cells and medium to adversely affect long-term survival. Therefore, conditions under which the precipitates were not formed were investigated.
201B7 cells, ReproFF, HSM, and calcium lactate were prepared in the same manner as in Example 2.
5×10^4 201B7 cells were seeded to a 96-well plate coated with Matrigel. The next day, to HSM, calcium lactate was added at 3 μM, 10 μM, 30 μM, 100 μM, 300 μM, 1 mM, 3 mM, 10 mM, 30 mM, or 100 mM, followed by culture for 7 days.

AFP [2] = experiment: AFP expression by real-time quantitative PCR (Example 4); conditions: 1 mM in HSM, 7 days culture, control ReproFF
Description: (§1) 201B7 cells, ReproFF, HSM, calcium lactate, and sodium lactate were prepared in the same manner as in Example 2.
(§2) The 201B7 cells were seeded to a 6-well plate coated with Matrigel, and when 100% confluence had been reached, the medium was exchanged with 1 mM calcium lactate (Ca-lactate), 1 mM sodium lactate (Na-lactate), or 1 mM lactic acid (Lactate), followed by culture for 7 days. Control cells were cultured in ReproFF.
(§3) RNA was extracted and analyzed for the expression levels of AFP and albumin by real-time quantitative PCR.

albumin = experiment: Albumin expression by real-time quantitative PCR (Example 4); conditions: 1 mM in HSM, 7 days culture, control ReproFF
Description: as §1, §2, §3

201B7 cells [3] = experiment: Optical microscope observation 2: state of culture cells (Example 5); conditions: 1 mM, 7 days culture
Description: 201B7 cells, HSM, calcium lactate, sodium lactate, and lactic acid were prepared in the same manner as in Example 2.
The 201B7 cells were seeded to a 6-well plate coated with Matrigel, and when 100% confluence had been reached, the medium was exchanged with 1 mM calcium lactate, 1 mM sodium lactate, or 1 mM lactic acid, followed by culture for 7 days.

AFP [4] = experiment: Immunostaining with anti-AFP antibody (Example 6); conditions: HSM supplemented, 7 days culture
Description: 201B7 cells, HSM, ReproFF, and calcium lactate were prepared in the same manner as in Example 2.
The 201B7 cells were seeded to an 8-well chamber slide and cultured. After 100% confluence had been reached, 1 mM calcium lactate was added to HSM, followed by culture for 7 days. As a control, the cells were cultured in ReproFF for 7 days.
The cells were fixed with 4% paraformaldehyde, and washed with phosphate buffered saline (PBS). The cells were incubated at 4° C. for 30 minutes in 100% methanol having added thereto 0.3% hydrogen peroxide solution to inactivate intrinsic peroxidase. The cells were washed three times with PBS. The cells were incubated at 4° C. for 30 minutes in PBS supplemented with 2% fetal bovine serum (wash buffer).
A mouse anti-human alpha-fetoprotein (AFP) antibody (manufactured by Takara Bio Inc., product code: M225) was diluted 1,000-fold with the wash buffer and added, followed by incubation at 4° C. overnight. The resultant was washed three times with PBS. An anti-mouse IgG antibody (manufactured by GE Healthcare) labeled with Horse-radish peroxidase was diluted 1,000-fold with the wash buffer, followed by incubation at 4° C. for 3 hours. The resultant was washed three times with PBS. Color development was performed with 3,3-diaminobenzidine (DAKO, K3467), and nuclei were stained with hematoxylin, followed by mounting.

[5] = in HSM, 7 days culture, optical microscope

Compound	cell survival (201B7 cells [1]; 1 mM in HSM, 7 days culture)	concentration at which precipitates were found (201B7 cells [1]; [5]) [µM]	concentration at which precipitates were not found (201B7 cells [1]; [5]) [µM]	expression of AFP as compared to the undifferentiated state (AFP [2])	expression of albumin as compared to the undifferentiated state (albumin)	cell survival in HSM supplemented with lactic acid (general remark) (201B7 cells [1]; iPS cells, 7 days)	state of cells as compared to cells cultured with calcium lactate (201B7 cells [3])	AFP expression (immunostaining) as compared to cells cultured in ReproFF (AFP [4])	optical microscope observation, FIG. 3A (201B7 cells [1]; 3 mM, 7 days culture)
CC(O)C(=O)[O-].CC(O)C(=O)[O-].[Ca+2] (stereo not drawn) [calcium lactate]	survived	≥ 3000	≤ 1000	upregulated	upregulated	–	–	–	–
CC(O)C(=O)O (stereo not drawn) [lactic acid]	–	–	–	–	–	survived even after 7 days	collapsing tendency	upregulated	–
CC(O)C(=O)[O-].[Na+] (stereo not drawn) [sodium lactate]	–	–	–	upregulated	upregulated	–	collapsing tendency	–	precipitates

From patent US20190127692A1, “Production Method For Hepatocyte Lineage Cells, Hepatocyte Lineage Cell Or Culture Product Obtained By The Production Method, And Hepatocyte Differentiation-Inducing Medium” (National University Corporation Chiba University, priority 2017, published 2019)
